PubChem BioAssay (NCI)
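Protocol summary: plate cells (96-well), add compound at 5 concentrations, incubate 48 h, interpolate endpoints linearly. TGI denotes the concentration required for complete inhibition of growth.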

Key:
Experiment in all cases: DTP human tumour cell line panel, 48 h
786-0 renal = test system: 786-0 renal
A498 renal = test system: A498 renal
A549 NSCLC = test system: A549 NSCLC
ACHN renal = test system: ACHN renal
BT-549 breast = test system: BT-549 breast
CAKI-1 renal = test system: CAKI-1 renal
CCRF-CEM leukemia = test system: CCRF-CEM leukemia
COLO 205 colon = test system: COLO 205 colon
DU-145 prostate = test system: DU-145 prostate
EKVX NSCLC = test system: EKVX NSCLC
HCC-2998 colon = test system: HCC-2998 colon
HCT-116 colon = test system: HCT-116 colon
HCT-15 colon = test system: HCT-15 colon
HL-60(TB) leukemia = test system: HL-60(TB) leukemia
HOP-62 NSCLC = test system: HOP-62 NSCLC
HOP-92 NSCLC = test system: HOP-92 NSCLC
HS 578T breast = test system: HS 578T breast
HT29 colon = test system: HT29 colon
IGROV1 ovarian = test system: IGROV1 ovarian
K-562 leukemia = test system: K-562 leukemia
KM12 colon = test system: KM12 colon
LOX IMVI melanoma = test system: LOX IMVI melanoma
M14 melanoma = test system: M14 melanoma
MALME-3M melanoma = test system: MALME-3M melanoma
MCF7 breast = test system: MCF7 breast
MDA-MB-231 breast = test system: MDA-MB-231 breast
MDA-MB-435 = test system: MDA-MB-435
MDA-N = test system: MDA-N
MOLT-4 leukemia = test system: MOLT-4 leukemia
NCI-H226 lung = test system: NCI-H226 lung
NCI-H23 lung = test system: NCI-H23 lung
NCI-H460 lung = test system: NCI-H460 lung
NCI-H522 lung = test system: NCI-H522 lung
NCI/ADR-RES ovarian = test system: NCI/ADR-RES ovarian
OVCAR-3 ovarian = test system: OVCAR-3 ovarian
OVCAR-4 ovarian = test system: OVCAR-4 ovarian
OVCAR-5 ovarian = test system: OVCAR-5 ovarian
OVCAR-8 ovarian = test system: OVCAR-8 ovarian
PC-3 prostate = test system: PC-3 prostate
RPMI-8226 leukemia = test system: RPMI-8226 leukemia
RXF 393 renal = test system: RXF 393 renal
SF-268 CNS = test system: SF-268 CNS
SF-295 CNS = test system: SF-295 CNS
SF-539 CNS = test system: SF-539 CNS
SK-MEL-2 melanoma = test system: SK-MEL-2 melanoma
SK-MEL-28 melanoma = test system: SK-MEL-28 melanoma
SK-MEL-5 melanoma = test system: SK-MEL-5 melanoma
SK-OV-3 ovarian = test system: SK-OV-3 ovarian
SN12C renal = test system: SN12C renal
SNB-19 CNS = test system: SNB-19 CNS
SNB-75 CNS = test system: SNB-75 CNS
SR leukemia = test system: SR leukemia
SW-620 colon = test system: SW-620 colon
TK-10 renal = test system: TK-10 renal
U251 CNS = test system: U251 CNS
UACC-257 melanoma = test system: UACC-257 melanoma
UACC-62 melanoma = test system: UACC-62 melanoma
UO-31 renal = test system: UO-31 renal

Measured: TGI

CCOP1(=O)CC(C)=C(Cl)C(OC)C1 (configuration not stated)
77.3 µM: K-562 leukemia
not listed: UO-31 renal
> 100 µM: all other assays above

O=CN1CCN(c2ccc3ccc(=O)[nH]c3n2)CC1
not listed: A498 renal | RXF 393 renal | SK-MEL-5 melanoma
> 100 µM: all other assays above
